Where two headings read alike, the source gives them in different places.
How the values were obtained:
[1] = target: T1, h-EP4 (Homo sapiens, UniProt P35408); assay: EP4 receptor binding assay (3H-PGE2 SPA)
Experimental: Compounds of the invention were tested in an EP4 receptor binding assay of the following protocol.

[2] = tested on: mature 10-week CD-1 mice; assay: In vivo ovulation assay (mature mouse ovulation induction model); conditions: for ED50: Mus musculus; for average of ova obtained: 5IU PMSG priming
Experimental: Ovulation triggering activity of compounds of the invention are tested in a mature mouse ovulation induction model.
Mature 10-week-old CD-mice are used. […] A test compound (based on solubility) is pre-dissolved in ethanol, DMSO or other reagents. Test compound is then diluted with saline or other diluents such as PBS or NP3S (5% N-methyl-pyrrolidinone/30% PEG-400/25% PEG-200/20% Propylene Glycol in saline). PMSG serves to stimulate follicule growth and maturation.
Uterus, oviducts and ovaries were collected and placed in pre-labeled dishes containing phosphate buffered saline (PBS). The collected tissues were transferred to the laboratory and intact oviduct carefully dissected out from uterus and ovary under the dissection microscope. The dissected oviducts were placed on the glass microscopic slide and covered with another slide. Two slides were taped on two edges. The numbers of ovulated ova in the oviducts were counted using upright microscope with 4× objective and recorded.
For evaluating the oral activity of this compound, two experiments were conducted, the first experiment was conducted with non-fasted animals and the second experiment was conducted in 24 h fasted animals (water provided). The compounds of the invention, according to their solubility are pre-dissolved in ethanol, DMSO or other reagents. The compounds of the invention are then diluted with saline or other diluents such as PBS or NP3S before oral administration.

[3] = target: T1, h-EP4; assay: EP4 cAMP assay in HEK293-EBNA cells transfected with pCEP4-hEP4; format: cell-based
Experimental: Compounds of the invention were tested in a total cAMP assay as follows. […] After overnight incubation, the medium was removed from each well and replaced with 45 μl of assay medium consisted of phenol red free D-MEM/F-12, 0.1% BSA (GibcoBRL) and 0.1 mM3-isobutyl-1-methyl-xanthine (Sigma). […] Total cAMP (intra- and extra-cellular) was measured by using a cAMP-screen ELISA System (Tropix, #CS1000).

[4] = target: h-EP2 (Homo sapiens, UniProt P43116); assay: Prostaglandin EP2 receptor binding assay (3H-PGE2 SPA)
h-EP2, sequence (P43116 whole entry): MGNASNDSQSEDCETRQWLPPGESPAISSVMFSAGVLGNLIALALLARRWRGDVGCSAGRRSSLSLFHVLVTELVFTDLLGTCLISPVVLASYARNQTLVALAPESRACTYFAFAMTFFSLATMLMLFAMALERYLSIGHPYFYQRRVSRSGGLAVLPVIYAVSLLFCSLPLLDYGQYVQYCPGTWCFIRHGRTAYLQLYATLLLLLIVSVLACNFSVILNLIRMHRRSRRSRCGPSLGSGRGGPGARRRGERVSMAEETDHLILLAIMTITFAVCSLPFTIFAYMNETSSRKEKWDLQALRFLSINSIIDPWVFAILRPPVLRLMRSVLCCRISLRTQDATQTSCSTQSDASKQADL
Experimental: Compounds of the invention were tested in an EP2 receptor binding assay of the following protocol. As referred to herein, the term an “EP2 receptor binding assay” designates the following protocol.

[5] = tested on: methacholine-induced bronchoconstriction; assay: In vivo inhibition of guinea pig methacholine-induced bronchoconstriction; conditions: for ED50: Cavia porcellus
Experimental: Guinea pig pulmonary-cholinergic in vivo model is generally used to test the materials for the treatments of asthma in human (Fleisch at al. 1985, K. Pharmacol. Exp. Ther. 233: 148-157). Compounds of the invention are tested in this model.
Groups of 3 Duncan Hartley derived male or female guinea pigs weighing 250±50 g are anesthetized with pentobarbital sodium (50 mg/kg i.p., plus an additional 15 mg/kg i.p. if required) and succinylcholine chloride (2 mg/animal i.p.) is subsequently administered to prevent spontaneous respiration. Body temperature is maintained at 37° to 38° C.
The trachea is cannulated and the guinea pig is ventilated with a Harvard rodent respirator in a closed system. Tracheal pressure is recorded through a side-arm of the cannula connected to a P23ID Statham transducer. Respiratory rate is set at 50 strokes/minute with a stroke volume (approximately 1 ml/100 g) sufficient to produce a baseline tracheal pressure of 6 cm H2O. Mean arterial pressure (BP) is monitored from a cannulated carotid artery, and heart-rate (HR) is obtained from chest electrodes arranged for lead II. The jugular vein is cannulated for i.v. vehicle or drug administration in a volume of 1 ml/kg.
Cholinergic-induced bronchoconstrictor responses, reflected as increases in tracheal pressure (cm H2O), are elicited by administration of methacholine hydrochloride (10 μg/kg base weight i.v.). In vehicle-treated control animals, methacholine-induced bronchoconstriction ranges from 70 to 90 percent of its own maximum response (about 40 to 65 percent of maximum possible bronchoconstriction obtained by tracheal occlusion).
Compounds of the invention are also tested via intratracheal (IT) route of administration. In this other experiment, compound of the invention, reference compound or vehicle is administered IT 10 (5 min for experiment 1 and 2) minutes before methacholine chloride (10 μg/kg i.v.) induced bronchoconstriction. Tracheal pressure (ITP), blood pressure and heart rate are measured immediately as indicated in the material and methods sections.
MED (medium effective dose) is measured.
Compounds of the invention are administered i.v. (10 mg/kg) 5 minutes before subministration of the methacoline hydrochloride challenge in 3 guinea pigs. A 50 percent or more (≧50) inhibition of the induced bronchoconstriction relative to vehicle treated control animals is considered significant.

[6] = tested on: TNFα; assay: In vivo inhibition of LPS-induced TNFa release in mice; conditions: oral; Inhibitory Dose at 50% of the maximum effect
Experimental: The anti-inflammatory activity of compounds of the invention may be assessed after a LPS challenge using the following protocol:
Eight weeks old C3H/HEN mice (IFFA-CREDO, L'arbresle, France) receive an oral treatment with compounds of the invention 6 different doses (0.001, 0.01, 0.1, 1 or 3 and 10 mg/kg in 0.5% CMC/0.25% tween-20). Six mice are used by group. Fifteen minutes later, endotoxins (O111:B4 Sigma, 0.3 mg/kg) are intraperitoneally injected. Heparinized whole blood is collected by decapitation. TNFα level is determined in plasma by ELISA (R & D Systems, Abdingdon, UK). Control animals receive 0.5% CMC/0.25% tween-20 (10 ml/kg) as vehicle. Data obtained from experiments are expressed as the mean±SEM and analysed using one-way analysis of variance (ANOVA) followed by Dunnett's t-test.

[7] = sc, Table 3, s.c., read-out: Ovulation Induction (ED50, mg/kg) s.c.
[8] = Table 2, total cAMP, read-out: h-EP4 EC50
[9] = po, Table 3, p.o., read-out: Ovulation Induction (ED50, mg/kg) p.o.
[10] = sc, read-out: calculated ED50, ovulation induction
[11] = read-out: Ki measured as described in Example 83 (EP4)

T1 sequence (P35408 whole entry): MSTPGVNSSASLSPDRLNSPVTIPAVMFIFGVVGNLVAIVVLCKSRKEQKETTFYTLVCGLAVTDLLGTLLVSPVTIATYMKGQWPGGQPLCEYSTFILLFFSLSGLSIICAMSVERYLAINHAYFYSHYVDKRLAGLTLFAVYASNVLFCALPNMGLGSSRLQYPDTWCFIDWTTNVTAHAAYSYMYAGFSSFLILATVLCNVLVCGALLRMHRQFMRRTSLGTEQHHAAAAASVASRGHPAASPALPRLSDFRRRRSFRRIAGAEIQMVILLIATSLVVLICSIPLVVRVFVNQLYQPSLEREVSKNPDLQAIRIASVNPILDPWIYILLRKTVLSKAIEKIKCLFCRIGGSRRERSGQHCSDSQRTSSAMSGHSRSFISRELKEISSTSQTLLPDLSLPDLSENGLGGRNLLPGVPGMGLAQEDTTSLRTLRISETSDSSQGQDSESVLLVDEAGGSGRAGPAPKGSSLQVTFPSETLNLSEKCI

Row | Ki ([1]; Table 2, read-out: h-EP4 Ki) [nM] | Ki ([4]; Table 1, read-out: h-EP2 Ki) [nM] | Ki ([1]; Table 1, read-out: h-EP4 Ki) [nM] | SMILES | ED50 [2, 7] [mg/kg] | ED50 [2, 9] [mg/kg] | also measured
1 | > 10000 |  |  | CCCC1([C@H](O)C/C=C/[C@H]2[C@H](O)CC(=O)[C@@H]2CCCCCCC(=O)OC)CCC1 [Butaprost, reference compound] | > 30 |  | 
2 | 0.5 |  |  | O=C(O)c1ccc(CCN2C(=O)CC[C@@H]2/C=C/[C@@H](O)Cc2cccc(Cl)c2)cc1 [Example 9, 4-(2-{(2R)-2-[(1E,3S)-3-hydroxy-4-(3-chlorophenyl)but-1-enyl]-5-oxopyrrolidin-1-yl}ethyl)benzoic acid] |  | 1 | EC50 [3, 8]: 30 nM
3 |  | 120 | 2 | CCCCC[C@H](O)/C=C/[C@H]1CCC(=O)N1CCc1ccc(C(=O)O)cc1 [Example 1, 4-(2-{(2R)-2-[(1E,3S)-3-hydroxyoct-1-enyl]-5-oxopyrrolidin-1-yl}ethyl) benzoic acid] | 3.8 | 22 | average of ova obtained ([2]; Group 4: 10 mg/kg s.c.): an average of 25 ova were obtained for Group 4;; average of ova obtained ([2]; Group 5: 30 mg/kg s.c.): an average of 22.4 ova were obtained for Group 5;; ED50 [2, 10]: 3.9 mg/kg; ED50 ([2]; oral, 24 h fasted animals, read-out: calculated ED50, ovulation induction): 21.1 mg/kg; ED50 ([2]; oral, non-fasted animals, read-out: calculated ED50, ovulation induction): 22 mg/kg; activity in the mice ovulation induction model ([2]; subcutaneous (sc), oral (po) and intravenous (iv) routes): active; ED50 ([5]; iv, read-out: calculated effective dose (ED50), bronchoconstriction): ~0.0017 mg/kg; ED50 ([5]; IT route of administration, read-out: calculated ED50, bronchoconstriction): 0.0024 mg/kg; calculated ED50, bronchoconstriction ([5]; IT route of administration): 0.72 μg/GP; effect on blood pressure and heart beat ([5]; i.v., 3 10^−5 up to 0.3 mg/kg): not altering neither blood pressure nor heart beat
4 | 7740 |  |  | CS(=O)(=O)NC(=O)CCC/C=C\C[C@H]1C(=O)C[C@@H](O)[C@@H]1/C=C/[C@@H](O)COc1ccccc1 [Sulprostone, reference compound] | > 27 |  | 
5 | 2 | 220 | 16 | O=C(O)c1ccc(CCN2C(=O)CC[C@@H]2/C=C/[C@@H](O)C2(c3ccccc3)CC2)cc1 [Example 7, 4-(2-{(2R)-2-[(1E,3R)-3-hydroxy-3-(1-phenylcyclopropyl)prop-1-enyl]-5 oxopyrrolidin-1-yl}ethyl)benzoic acid] | 0.73 |  | 
6 |  | 1930 | 25 | O=C(O)c1ccc(CCN2C(=O)CC[C@@H]2/C=C/[C@H](O)C2(c3ccccc3)CC2)cc1 [Example 8, 4-(2-{(2R)-2-[(1E,3S)-3-hydroxy-3-(1-phenylcyclopropyl)prop-1-enyl]-5-oxopyrrolidin-1-yl}ethyl)benzoic acid] |  |  | 
7 |  | 2100 | 20 | CCCCC(C)(C)C(O)/C=C/[C@H]1CCC(=O)N1CCc1ccc(C(=O)O)cc1 (stereo in doubt) [Example 6, 4-(2-{2-[(1E,3R)-3-hydroxy-4,4-dimethyloct-1-enyl]-5-oxopyrrolidin-1-yl}ethyl)benzoic acid] |  |  | 
8 |  |  |  | O=C(O)c1ccc(CCN2C(=O)CCN2CCC(O)Cc2cccc(I)c2)cc1 (centres unmarked) [4-(2-{2-.[4-(3-iodophenyl)-3-hydroxybutyl]-5-oxopyrazolidin-1-yl}ethyl)benzoic acid, reference compound] |  |  | Ki ([4]; read-out: Ki on EP2): 4450 nM; Ki [1, 11]: 14 nM; release of ova ([2]; orally, single dose of 20 mg/kg): 10±3 ova
9 | 0.05 |  |  | O=C(O)c1ccc(CCN2C(=O)CC[C@@H]2/C=C/[C@@H](O)Cc2ccccc2)cc1 [Example 31, 4-[2-{(2R)-2-[(1E,3S)-3-hydroxy-4-phenylbut-1-enyl]-5-oxopyrrolidin-1-yl}ethyl)benzoic acid] | 0.32 | 1 | ID50 [6]: 0.003 mg/kg
10 |  |  |  | CCCCC[C@H](O)/C=C/[C@H]1[C@H](O)CC(=O)[C@@H]1C/C=C\CCCC(=O)O [PGE2, reference compound] |  |  | average of ova obtained ([2]; Group 3: 13.5 mg/kg): an average of 19.4 ova were obtained for Group 3;
11 | 1 |  |  | CCCCCC[C@H](O)/C=C/[C@H]1CCC(=O)N1CCc1ccc(C(=O)O)cc1 [Example 10, 4-(2-{(2R)-2-[(1E,3S)-3-hydroxynon-1-enyl]-5-oxopyrrolidin-1-yl}ethyl) benzoic acid] |  |  | 
12 |  | 1240 | 0.732 | CCCCC(C)(C)C(O)/C=C/[C@H]1CCC(=O)N1CCc1ccc(C(=O)O)cc1 (stereo in doubt) [Example 5, 4-(2-{2-[(1E,3S)-3-hydroxy-4,4-dimethyloct-1-enyl]-5-oxopyrrolidin-1-yl}ethyl)benzoic acid] | 3 | 18 | EC50 [3, 8]: 0.014 nM
13 |  |  |  | O=C(O)c1ccc(CCN2C(=O)CCN2CCC(O)Cc2cccc(C(F)(F)F)c2)cc1 (centres unmarked) [4-[2-(2-{3-hydroxy-4-[3-(trifluoromethyl)phenyl]butyl}-5-oxopyrazolidin-1-yl)ethyl]benzoic acid, reference compound] |  |  | Ki [1, 11]: 23 nM; EC50 ([3]; read-out: EC50 measured as described in Example 84 (EP4)): 0.2 nM; ED50 [2, 10]: 5 mg/kg

Row | SMILES | Ki ([1]; Table 2, read-out: h-EP4 Ki) [nM] | Ki ([4]; Table 1, read-out: h-EP2 Ki) [nM] | Ki ([1]; Table 1, read-out: h-EP4 Ki) [nM] | ED50 [2, 7] [mg/kg] | ED50 [2, 9] [mg/kg] | also measured
14 | CCCCC1([C@H](O)/C=C/[C@H]2CCC(=O)N2CCc2ccc(C(=O)O)cc2)CCC1 [Example 45, 4-(2-{(2R)-2-[(1E,3R)-3-(1-butylcyclobutyl)-3-hydroxyprop-1-enyl]-5-oxopyrrolidin-1-yl}ethyl)benzoic acid] | 2 |  |  |  | 1 | EC50 [3, 8]: 0.3 nM; ID50 [6]: 0.010 mg/kg
